Results published in patent publication US20110105474A1, “HETEROCYCLIC DERIVATIVES AS HDAC INHIBITORS” (DAC S.r.l., priority 2008, published 2011).
Structures can show the parent of a compound that is named as a salt.

Assays:
Format in all cases: cell-based
K562 cells = experiment: Cell growth, CellTiter-Glo Luminescent Cell Viability Assay, K562; details: Homo sapiens, 72 h incubation
From the text: (§1) CellTiter-Glo® Luminescent Cell Viability Assay (Promega) is a homogeneous method of determining the number of viable cells in culture based on quantitation of the present ATP, which indicates the presence of metabolically active cells. The homogeneous assay procedure involves addition of a single reagent (CellTiter-Glo®Reagent) directly to the cells, which leads to cell lysis and generation of a luminescent signal proportional to the amount of the ATP and the number of cells present in culture. The assay relies on the properties of a proprietary thermostable luciferase (Ultra-Glo® recombinant luciferase), which generates a luminescent signal.
(§2) K562, A549 and HCT-116 cells, in exponential growth, were incubated for 72 h with different concentrations of the inhibitors. After 72 h, a volume of CellTiter-Glo® Reagent equal to the volume of cell culture medium was added. The content was mixed for 2 min to induce cell lysis. The luminescence was recorded after further 10 min at RT in order to obtain a stabilized luminescent signal.
(§3) The IC50 was calculated using GraphPad Software.
(§4) IC50 results were allocated to one of 3 ranges as follows: Range A: IC50≦1.0 μM; Range B: from 1.0 to 3.0 μM; Range C: IC50≧3.0 μM.

A549 cells = experiment: Cell growth, CellTiter-Glo Luminescent Cell Viability Assay, A549; details: Homo sapiens, 72 h incubation
From the text: as §1, §2, §3, §4

HCT-116 cells = experiment: Cell growth, CellTiter-Glo Luminescent Cell Viability Assay, HCT-116; details: Homo sapiens, 72 h incubation, read-out: IC50 HCT116
From the text: as §1, §2, §3, §4

Row | IC50 (K562 cells) [µM] | IC50 (A549 cells) [µM] | IC50 (HCT-116 cells) [µM] | Compound
1 | 1 to 3 | ≤ 1 | ≤ 1 | O=C(/C=C/c1cccc(/C=C/C(=O)N2CCN(c3ccc(C(F)(F)F)cc3)CC2)n1)NO [Example 35, (E)-N-Hydroxy-3-(6-{(E)-3-oxo-3-[4-(4-trifluoromethyl-phenyl)-piperazin-1-yl]-propenyl}-pyridin-2-yl)-acrylamide hydrochloride]
2 | ≥ 3 | ≥ 3 | ≥ 3 | N#Cc1ccc(N2CCN(C(=O)/C=C/c3cccc(/C=C/C(=O)NO)n3)CC2)cc1 [Example 36, (E)-3-(6-{(E)-3-[4-(4-Cyano-phenyl)-piperazin-1-yl]-3-oxo-propenyl}-pyridin-2-yl)-N-hydroxy-acrylamide hydrochloride]
3 | 1 to 3 | 1 to 3 | ≤ 1 | O=C(/C=C/c1cccc(/C=C/C(=O)N2CCN(c3ccc(F)cc3)CC2)n1)NO [Example 37, (E)-3-(6-{(E)-3-[4-(4-Fluoro-phenyl)-piperazin-1-yl]-3-oxo-propenyl}-pyridin-2-yl)-N-hydroxy-acrylamide hydrochloride]
4 | ≤ 1 | ≤ 1 | ≤ 1 | O=C(/C=C/c1cccc(/C=C/C(=O)N2CCN(c3ccc(Br)cc3)CC2)n1)NO [Example 38, (E)-3-(6-{(E)-3-[4-(4-Bromo-phenyl)-piperazin-1-yl]-3-oxo-propenyl}-pyridin-2-yl)-N-hydroxy-acrylamide hydrochloride]
5 | 1 to 3 | ≥ 3 | 1 to 3 | O=C(/C=C/c1cccc(/C=C/C(=O)N2CCN(c3ccc(OCc4ccccc4)cc3)CC2)n1)NO [Example 39, (E)-3-(6-{(E)-3-[4-(4-Benzyloxy-phenyl)-piperazin-1-yl]-3-oxo-propenyl}-pyridin-2-yl)-N-hydroxy-acrylamide hydrochloride]
6 | ≥ 3 | ≥ 3 | ≥ 3 | O=C(/C=C/c1cccc(/C=C/C(=O)N2CCN(c3ccncc3)CC2)n1)NO [Example 40, (E)-N-Hydroxy-3-{6-[(E)-3-oxo-3-(4-pyridin-4-yl-piperazin-1-yl)-propenyl]-pyridin-2-yl}-acrylamide hydrochloride]
7 | 1 to 3 | ≥ 3 | 1 to 3 | O=C(/C=C/c1cccc(/C=C/C(=O)N2C[C@@H]3C[C@H]2CN3c2ccc(Cl)cc2)n1)NO [Example 41, (E)-3-(6-{(E)-3-[5-(4-Chloro-phenyl)-(1S,4S)-2,5-diaza-bicyclo[2.2.1]hept-2-yl]-3-oxo-propenyl}-pyridin-2-yl)-N-hydroxy-acrylamide trifluoroacetate]
8 | 1 to 3 | ≥ 3 | 1 to 3 | O=C(/C=C/c1cccc(/C=C/C(=O)N2CCc3[nH]c4ccccc4c3C2)n1)NO [Example 45, (E)-N-Hydroxy-3-{6-[(E)-3-oxo-3-(1,3,4,5-tetrahydro-pyrido[4,3-b]indol-2-yl)-propenyl]-pyridin-2-yl}-acrylamide hydrochloride]
9 | 1 to 3 | 1 to 3 | ≤ 1 | CC(C)c1ccc(N2CCN(C(=O)/C=C/c3cccc(/C=C/C(=O)NO)n3)CC2)cc1 [Example 49, (E)-N-Hydroxy-3-(6-{(E)-3-[4-(4-isopropyl-phenyl)-piperazin-1-yl]-3-oxo-propenyl}-pyridin-2-yl)-acrylamide hydrochloride]
10 | 1 to 3 | ≥ 3 | 1 to 3 | CC(C)(C)c1ccc(N2CCN(C(=O)/C=C/c3cccc(/C=C/C(=O)NO)n3)CC2)cc1 [Example 50, (E)-3-(6-{(E)-3-[4-(4-tert-Butyl-phenyl)-piperazin-1-yl]-3-oxo-propenyl}-pyridin-2-yl)-N-hydroxy-acrylamide hydrochloride]
11 | ≥ 3 | ≥ 3 | ≥ 3 | CS(=O)(=O)c1ccc(N2CCN(C(=O)/C=C/c3cccc(/C=C/C(=O)NO)n3)CC2)cc1 [Example 51, (E)-N-Hydroxy-3-(6-{(E)-3-[4-(4-methanesulfonyl-phenyl)-piperazin-1-yl]-3-oxo-propenyl}-pyridin-2-yl)-acrylamide hydrochloride]
12 | ≤ 1 | ≤ 1 | ≤ 1 | O=C(/C=C/c1cccc(/C=C/C(=O)N2CCCc3ccccc32)n1)NO [Example 55, (E)-3-{6-[(E)-3-(3,4-Dihydro-2H-quinolin-1-yl)-3-oxo-propenyl]-pyridin-2-yl}-N-hydroxy-acrylamide trifluoroacetate]
13 | 1 to 3 | ≥ 3 | 1 to 3 | O=C(/C=C/c1cccc(/C=C/C(=O)N2CCc3c([nH]c4ccccc34)C2)n1)NO [Example 56, (E)-N-Hydroxy-3-{6-[(E)-3-oxo-3-(1,3,4,9-tetrahydro-beta-carbolin-2-yl)-propenyl]-pyridin-2-yl}-acrylamide hydrochloride]
14 | ≥ 3 | ≥ 3 | 1 to 3 | O=C(/C=C/c1cccc(/C=C/C(=O)N2CCC(c3nc4ccccc4o3)CC2)n1)NO [Example 57, (E)-3-{6-[(E)-3-(4-Benzooxazol-2-yl-piperidin-1-yl)-3-oxo-propenyl]-pyridin-2-yl}-N-hydroxy-acrylamide hydrochloride]
15 | ≤ 1 | 1 to 3 | ≤ 1 | O=C(/C=C/c1cccc(/C=C/C(=O)N2CCc3ccccc3C2)n1)NO [Example 58, (E)-3-{6-[(E)-3-(3,4-Dihydro-1H-isoquinolin-2-yl)-3-oxo-propenyl]-pyridin-2-yl}-N-hydroxy-acrylamide hydrochloride]
16 | ≥ 3 | ≥ 3 | ≥ 3 | O=C(/C=C/c1cccc(/C=C/C(=O)N2CCC(c3nc4ccccc4[nH]3)CC2)n1)NO [Example 59, (E)-3-(6-{(E)-3-[4-(1H-Benzoimidazol-2-yl)-piperidin-1-yl]-3-oxo-propenyl}-pyridin-2-yl)-N-hydroxy-acrylamide hydrochloride]
17 | ≤ 1 | ≥ 3 | 1 to 3 | O=C(/C=C/c1cccc(/C=C/C(=O)N2CCC3(C=Cc4ccccc43)CC2)n1)NO [Example 60, (E)-3-(6-{(E)-3-[Spiro[indene-1,4′-piperidine-1′-yl]-3-oxo-propenyl}-pyridin-2-yl)-N-hydroxy-acrylamide hydrochloride]
18 | ≤ 1 | 1 to 3 | ≤ 1 | O=C(/C=C/c1cccc(/C=C/C(=O)N2CCC3(CC2)OCc2ccccc23)n1)NO [Example 61, (E)-3-(6-{(E)-3-[Spiro[2-benzofuran-1,4′-piperidine-1′-yl]-3-oxo-propenyl}-pyridin-2-yl)-N-hydroxy-acrylamide hydrochloride]
19 | ≥ 3 | ≥ 3 | ≥ 3 | O=C(/C=C/c1cccc(/C=C/C(=O)N2CCC(n3c(-c4ccccc4)nc4ccccc43)CC2)n1)NO [Example 62, (E)-N-Hydroxy-3-(6-{(E)-3-oxo-3-[4-(2-phenyl-benzoimidazol-1-yl)-piperidin-1-yl]-propenyl}-pyridin-2-yl)-acrylamide hydrochloride]
20 | ≤ 1 | ≤ 1 | ≤ 1 | O=C(/C=C/c1cccc(/C=C/C(=O)N2CCC[C@@H](c3ccccc3)C2)n1)NO [Example 73, (E)-N-Hydroxy-3-{6-[(E)-3-oxo-3-((S)-3-phenyl-piperidin-1-yl)-propenyl]-pyridin-2-yl}-acrylamide hydrochloride]
21 | ≤ 1 | ≤ 1 | ≤ 1 | O=C(/C=C/c1cccc(/C=C/C(=O)N2CCCC(c3ccccc3)C2)n1)NO (stereo not drawn) [Example 74, (E)-N-Hydroxy-3-{6-[(E)-3-oxo-3-((12)-3-phenyl-piperidin-1-yl)-propenyl]-pyridin-2-yl}-acrylamide hydrochloride]
22 | 1 to 3 | 1 to 3 | ≤ 1 | O=C(/C=C/c1cccc(/C=C/C(=O)N2CC=C(c3ccccc3)CC2)c1)NO [Example 75, (E)-N-Hydroxy-3-{3-[(E)-3-oxo-3-(4-phenyl-3,6-dihydro-2H-pyridin-1-yl)-propenyl]-phenyl}-acrylamide]
23 | ≤ 1 | ≤ 1 | ≤ 1 | O=C(/C=C/c1cccc(/C=C/C(=O)N2CCN(c3ccc(Cl)cc3)CC2)c1)NO [Example 76, (E)-3-(3-{(E)-3-[4-(4-Chloro-phenyl)-piperazin-1-yl]-3-oxo-propenyl}-phenyl)-N-hydroxy-acrylamide hydrochloride]
24 | 1 to 3 | ≥ 3 | 1 to 3 | O=C(/C=C/c1cccc(/C=C/C(=O)N2CCC(C(=O)c3ccccc3)CC2)c1)NO [Example 77, (E)-3-{3-[(E)-3-(4-Benzoyl-piperidin-1-yl)-3-oxo-propenyl]phenyl}-N-hydroxy-acrylamide]
25 | ≥ 3 | ≥ 3 | ≥ 3 | O=C(/C=C/c1cccc(/C=C/C(=O)N2CCC[C@H](c3ccccc3)C2)c1)NO [Example 81, (E)-N-Hydroxy-3-{3-[(E)-3-oxo-3-((R)-3-phenyl-piperidin-1-yl)-propenyl]-phenyl}acrylamide]
26 | ≥ 3 | ≥ 3 | ≥ 3 | O=C(/C=C/c1cccc(/C=C/C(=O)N2CCC[C@@H](c3ccccc3)C2)c1)NO [Example 82, (E)-N-Hydroxy-3-{3-[(E)-3-oxo-3-((S)-3-phenyl-piperidin-1-yl)-propenyl]-phenyl}-acrylamide]
